Columns and labels:
Test in all cases: Competitive isoTOP-ABPP in situ (fragment-treated cells)
Format in all cases: cell-based
[1] = target: T1, cysteines in MDA-MB-231 and Ramos cells (Homo sapiens, UniProt Q9NY27); details: 200 μM, insitu
T1 sequence (Q9NY27 1-417): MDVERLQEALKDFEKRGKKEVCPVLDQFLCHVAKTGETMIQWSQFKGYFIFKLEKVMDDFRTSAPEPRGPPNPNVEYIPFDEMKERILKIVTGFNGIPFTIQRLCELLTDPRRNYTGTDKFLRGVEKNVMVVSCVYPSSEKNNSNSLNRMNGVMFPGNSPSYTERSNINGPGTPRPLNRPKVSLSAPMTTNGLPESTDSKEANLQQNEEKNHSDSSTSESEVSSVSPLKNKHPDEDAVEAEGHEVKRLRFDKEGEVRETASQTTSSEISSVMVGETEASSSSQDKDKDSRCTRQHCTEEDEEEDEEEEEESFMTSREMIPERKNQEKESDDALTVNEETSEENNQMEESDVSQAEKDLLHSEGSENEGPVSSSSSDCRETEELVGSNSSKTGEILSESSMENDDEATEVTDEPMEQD

[2] = target: cysteines in MDA-MB-231 and Ramos cells (Homo sapiens, UniProt P07858); details: 200 μM, insitu, 231
[3] = target: T2, cysteines in MDA-MB-231 and Ramos cells (Homo sapiens, UniProt Q13158); details: 200 μM, insitu
T2 sequence (Q13158 1-208): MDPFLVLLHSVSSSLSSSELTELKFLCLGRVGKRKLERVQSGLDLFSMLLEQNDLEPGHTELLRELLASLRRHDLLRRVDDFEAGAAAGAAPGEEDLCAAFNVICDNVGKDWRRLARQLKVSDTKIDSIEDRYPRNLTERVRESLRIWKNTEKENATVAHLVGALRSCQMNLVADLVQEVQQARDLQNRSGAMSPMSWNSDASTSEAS

[4] = target: cysteines in MDA-MB-231 and Ramos cells (Homo sapiens, UniProt Q15118); details: 200 μM, insitu
[5] = target: T3, cysteines in MDA-MB-231 and Ramos cells (Homo sapiens, UniProt Q86UY8); details: 200 μM, insitu, 231
T3 sequence (Q86UY8 1-548): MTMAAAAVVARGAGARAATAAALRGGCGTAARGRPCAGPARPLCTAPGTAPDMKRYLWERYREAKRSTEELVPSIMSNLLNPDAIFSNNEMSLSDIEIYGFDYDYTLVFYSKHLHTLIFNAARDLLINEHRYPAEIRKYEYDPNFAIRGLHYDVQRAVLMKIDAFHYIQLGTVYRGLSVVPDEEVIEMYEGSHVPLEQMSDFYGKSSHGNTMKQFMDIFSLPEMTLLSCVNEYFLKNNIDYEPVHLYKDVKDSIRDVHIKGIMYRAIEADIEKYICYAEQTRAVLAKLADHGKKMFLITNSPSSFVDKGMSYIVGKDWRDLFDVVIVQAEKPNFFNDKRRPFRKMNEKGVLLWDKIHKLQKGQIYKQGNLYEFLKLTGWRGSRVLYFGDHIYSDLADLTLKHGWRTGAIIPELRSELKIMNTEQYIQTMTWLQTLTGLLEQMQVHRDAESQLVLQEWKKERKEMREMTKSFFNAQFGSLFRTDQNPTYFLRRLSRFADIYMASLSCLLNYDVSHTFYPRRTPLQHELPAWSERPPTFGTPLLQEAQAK

[6] = target: T4, cysteines in MDA-MB-231 and Ramos cells (Homo sapiens, UniProt Q9NQ88); details: 200 μM, insitu
T4 sequence (Q9NQ88 1-270): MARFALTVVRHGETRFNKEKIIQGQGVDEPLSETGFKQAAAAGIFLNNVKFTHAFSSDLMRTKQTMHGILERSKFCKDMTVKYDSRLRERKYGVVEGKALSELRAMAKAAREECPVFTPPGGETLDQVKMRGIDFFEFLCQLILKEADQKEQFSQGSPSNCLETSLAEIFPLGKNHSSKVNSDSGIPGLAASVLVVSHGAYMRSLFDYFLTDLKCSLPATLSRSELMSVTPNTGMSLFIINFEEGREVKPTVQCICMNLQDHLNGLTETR

[7] = target: T5, cysteines in MDA-MB-231 and Ramos cells (Homo sapiens, UniProt Q8WV74); details: 200 μM, insitu; for isoTOP-ABPP ratio Q8WV74_C207 / isoTOP-ABPP reactivity Q8WV74_C207 NUDT8: 231
T5 sequence (Q8WV74 1-236): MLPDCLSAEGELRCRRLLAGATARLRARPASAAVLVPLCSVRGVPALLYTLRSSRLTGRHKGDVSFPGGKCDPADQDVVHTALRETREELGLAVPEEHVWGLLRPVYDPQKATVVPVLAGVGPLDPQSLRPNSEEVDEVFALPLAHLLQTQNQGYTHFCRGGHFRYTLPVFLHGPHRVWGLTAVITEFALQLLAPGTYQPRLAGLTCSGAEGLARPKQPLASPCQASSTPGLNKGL

[8] = target: T6, cysteines in MDA-MB-231 and Ramos cells (Homo sapiens, UniProt Q96F86); details: 200 μM, insitu
T6 sequence (Q96F86 1-508): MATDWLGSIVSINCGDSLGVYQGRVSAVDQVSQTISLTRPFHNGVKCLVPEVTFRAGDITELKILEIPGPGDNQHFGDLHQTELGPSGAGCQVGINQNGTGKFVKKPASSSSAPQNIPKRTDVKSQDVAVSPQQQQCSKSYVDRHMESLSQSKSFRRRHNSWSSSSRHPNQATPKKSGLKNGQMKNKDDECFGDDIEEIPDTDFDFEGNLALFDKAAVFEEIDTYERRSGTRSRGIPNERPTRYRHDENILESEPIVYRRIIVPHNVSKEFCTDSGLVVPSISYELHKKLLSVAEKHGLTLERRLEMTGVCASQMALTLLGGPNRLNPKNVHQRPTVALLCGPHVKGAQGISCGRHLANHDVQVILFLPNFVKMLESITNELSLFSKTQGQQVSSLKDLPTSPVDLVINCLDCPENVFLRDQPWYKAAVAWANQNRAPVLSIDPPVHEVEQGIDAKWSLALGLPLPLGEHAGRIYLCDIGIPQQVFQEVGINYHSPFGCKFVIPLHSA

[9] = target: cysteines in MDA-MB-231 and Ramos cells (Homo sapiens, UniProt P27708); details: 200 μM, insitu
Sequence of cysteines in MDA-MB-231 and Ramos cells (Homo sapiens, UniProt P27708) (P27708 whole entry): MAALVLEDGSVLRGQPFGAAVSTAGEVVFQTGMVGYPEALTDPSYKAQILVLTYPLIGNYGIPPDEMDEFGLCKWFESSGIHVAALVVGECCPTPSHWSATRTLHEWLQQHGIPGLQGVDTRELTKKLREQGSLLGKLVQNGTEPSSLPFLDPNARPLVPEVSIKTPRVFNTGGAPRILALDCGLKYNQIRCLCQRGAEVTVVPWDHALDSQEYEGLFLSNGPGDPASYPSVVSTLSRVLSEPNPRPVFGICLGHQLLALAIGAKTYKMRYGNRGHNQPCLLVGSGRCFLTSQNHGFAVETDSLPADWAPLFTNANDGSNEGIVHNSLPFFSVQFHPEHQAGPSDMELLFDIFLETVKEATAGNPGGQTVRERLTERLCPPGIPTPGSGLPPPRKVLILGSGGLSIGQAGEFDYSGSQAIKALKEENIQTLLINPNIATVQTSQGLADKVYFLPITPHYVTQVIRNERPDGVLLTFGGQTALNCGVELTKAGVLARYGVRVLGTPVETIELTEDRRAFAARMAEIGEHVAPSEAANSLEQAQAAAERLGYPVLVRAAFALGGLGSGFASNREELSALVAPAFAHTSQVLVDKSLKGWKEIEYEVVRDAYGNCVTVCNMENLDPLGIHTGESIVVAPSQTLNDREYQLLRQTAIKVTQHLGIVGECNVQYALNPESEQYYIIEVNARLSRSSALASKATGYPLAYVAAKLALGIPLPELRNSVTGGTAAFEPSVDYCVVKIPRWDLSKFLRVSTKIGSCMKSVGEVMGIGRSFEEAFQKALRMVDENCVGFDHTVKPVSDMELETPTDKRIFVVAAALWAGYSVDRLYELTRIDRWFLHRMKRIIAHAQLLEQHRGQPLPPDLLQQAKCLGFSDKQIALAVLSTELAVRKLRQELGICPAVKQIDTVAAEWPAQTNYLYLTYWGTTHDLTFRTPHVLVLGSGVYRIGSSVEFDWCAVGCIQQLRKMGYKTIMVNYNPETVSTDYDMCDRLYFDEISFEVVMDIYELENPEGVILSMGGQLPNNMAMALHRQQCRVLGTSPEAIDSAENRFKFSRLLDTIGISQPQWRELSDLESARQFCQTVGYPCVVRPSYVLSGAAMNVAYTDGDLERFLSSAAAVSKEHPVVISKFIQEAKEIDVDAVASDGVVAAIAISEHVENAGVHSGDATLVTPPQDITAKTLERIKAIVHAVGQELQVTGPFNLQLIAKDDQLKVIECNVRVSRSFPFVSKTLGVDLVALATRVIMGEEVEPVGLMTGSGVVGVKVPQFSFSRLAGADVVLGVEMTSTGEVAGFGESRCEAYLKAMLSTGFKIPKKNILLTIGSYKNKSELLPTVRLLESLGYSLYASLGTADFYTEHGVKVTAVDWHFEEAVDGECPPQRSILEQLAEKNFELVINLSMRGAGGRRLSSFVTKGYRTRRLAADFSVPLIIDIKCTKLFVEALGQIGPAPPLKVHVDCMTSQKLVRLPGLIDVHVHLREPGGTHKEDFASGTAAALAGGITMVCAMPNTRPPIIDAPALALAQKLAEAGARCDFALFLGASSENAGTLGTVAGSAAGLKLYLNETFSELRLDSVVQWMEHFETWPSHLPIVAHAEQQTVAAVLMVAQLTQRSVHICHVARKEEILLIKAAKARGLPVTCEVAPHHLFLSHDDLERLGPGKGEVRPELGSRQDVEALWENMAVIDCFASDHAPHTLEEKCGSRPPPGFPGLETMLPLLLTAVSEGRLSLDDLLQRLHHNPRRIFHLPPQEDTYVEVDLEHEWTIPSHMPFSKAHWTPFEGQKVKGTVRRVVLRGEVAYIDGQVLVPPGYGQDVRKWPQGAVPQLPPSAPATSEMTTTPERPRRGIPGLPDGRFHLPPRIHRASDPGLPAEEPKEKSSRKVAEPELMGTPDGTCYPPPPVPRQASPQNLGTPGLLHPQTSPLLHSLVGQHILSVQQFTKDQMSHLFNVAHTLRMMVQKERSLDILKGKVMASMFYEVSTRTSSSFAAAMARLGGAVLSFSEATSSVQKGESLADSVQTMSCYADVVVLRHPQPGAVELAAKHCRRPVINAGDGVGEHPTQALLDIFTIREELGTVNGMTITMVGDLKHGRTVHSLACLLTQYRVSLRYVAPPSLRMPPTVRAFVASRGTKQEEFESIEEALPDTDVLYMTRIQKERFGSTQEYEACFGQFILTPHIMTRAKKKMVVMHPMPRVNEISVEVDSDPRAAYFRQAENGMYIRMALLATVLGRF

Sequence of cysteines in MDA-MB-231 and Ramos cells (Homo sapiens, UniProt Q15118) (Q15118 29-436): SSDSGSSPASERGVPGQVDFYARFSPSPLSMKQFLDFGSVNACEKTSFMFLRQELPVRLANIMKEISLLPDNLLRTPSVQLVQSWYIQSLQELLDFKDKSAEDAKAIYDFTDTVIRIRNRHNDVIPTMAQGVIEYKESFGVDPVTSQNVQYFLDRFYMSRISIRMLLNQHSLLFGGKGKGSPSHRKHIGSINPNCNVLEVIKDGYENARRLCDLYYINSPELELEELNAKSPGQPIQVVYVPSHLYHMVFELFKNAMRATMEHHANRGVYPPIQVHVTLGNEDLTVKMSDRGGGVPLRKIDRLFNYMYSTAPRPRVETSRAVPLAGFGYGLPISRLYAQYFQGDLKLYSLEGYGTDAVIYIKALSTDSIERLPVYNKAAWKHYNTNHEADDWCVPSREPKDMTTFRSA

Row | Structure (SMILES) | isoTOP-ABPP ratio P07858_C211 [2] | isoTOP-ABPP ratio Q13158_C98 [3]; 231 | isoTOP-ABPP ratio Q15118_C71 [4]; 231 | isoTOP-ABPP ratio Q86UY8_C276 [5] | isoTOP-ABPP ratio Q9NQ88_C114 [6]; 231 | isoTOP-ABPP ratio Q9NQ88_C161 [6]; 231 | isoTOP-ABPP ratio Q96F86_C413 [8]; 231 | isoTOP-ABPP ratio Q9NQ88_C161 ([6]; ramos) | isoTOP-ABPP ratio Q96F86_C413 ([8]; ramos) | further results
1 | C=CC(=O)Nc1cc(F)c(N2CCN(C(=O)OC(C)(C)C)CC2)c(F)c1 [compound 38] | 1.8 | 1.5 | 1.3 | – | – | – | – | – | – | isoTOP-ABPP ratio Q9NY27_C22 [1]; 231: 1.0
2 | CC1CCc2ccccc2N1C(=O)CCl (stereo not drawn) [compound 45] | 2.4 | – | 20.0 | 2.1 | 4.6 | 20.0 | 20.0 | – | – | isoTOP-ABPP ratio Q9NY27_C22 [1]; 231: 20.0; isoTOP-ABPP ratio Q8WV74_C207 [7]: 20.0
3 | COc1ccc2c(c1)CCCN2C(=O)CCl [compound 2] | – | – | – | – | – | – | – | – | – | isoTOP-ABPP reactivity Q86UY8_C276 NT5DC3 [5]: 3.8; isoTOP-ABPP reactivity Q9NQ88_C114 TIGAR [6]; 231: 2.8; isoTOP-ABPP reactivity Q9NQ88_C161 TIGAR [6]; 231: 6.0; isoTOP-ABPP reactivity P27708_C73 CAD [9]; 231: 3.1; isoTOP-ABPP reactivity Q8WV74_C207 NUDT8 [7]: 20.0; isoTOP-ABPP reactivity Q13158_C98 FADD [3]; 231: 20.0; isoTOP-ABPP reactivity Q96F86_C413 EDC3 [8]; 231: 20.0; isoTOP-ABPP reactivity Q15118_C71 PDK1 [4]; 231: 20.0
4 | COc1cc2c(cc1OC)CN(C(=O)CCl)CC2 [compound 8] | – | – | – | – | – | – | – | – | – | isoTOP-ABPP reactivity P27708_C73 CAD [9]; 231: 20.0; isoTOP-ABPP reactivity Q8WV74_C207 NUDT8 [7]: 20.0; isoTOP-ABPP reactivity Q15118_C71 PDK1 [4]; 231: 20.0
5 | CC(C)CCOCCNC(=O)CCl [compound 27] | 0.8 | 0.6 | 1.5 | 1.7 | 0.4 | 0.6 | 0.7 | – | – | isoTOP-ABPP ratio P27708_C73 [9]; 231: 0.5; isoTOP-ABPP ratio Q8WV74_C207 [7]: 2.2
6 | O=C(CCl)N1CCN(S(=O)(=O)c2ccccc2F)CC1 [compound 10] | 7.4 | – | 18.0 | 5.8 | 2.1 | 4.6 | 20.0 | 2.1 | 20.0 | isoTOP-ABPP ratio Q9NY27_C22 ([1]; ramos): 2.1; isoTOP-ABPP ratio, cysteine Q8WV74_C207 ([7]; ramos): 20.0; isoTOP-ABPP ratio Q15118_C71 ([4]; ramos): 2.7
7 | O=C(CCl)N1CCN(CC(=O)N2CCOCC2)CC1 [compound 29] | – | – | – | – | – | – | – | 1.3 | 1.9 | isoTOP-ABPP ratio Q9NY27_C22 ([1]; ramos): 1.7; isoTOP-ABPP ratio Q9NQ88_C114 ([6]; ramos): 0.9; isoTOP-ABPP ratio P27708_C73 ([9]; ramos): 1.8; isoTOP-ABPP ratio Q13158_C98 ([3]; ramos): 1.3; isoTOP-ABPP ratio Q15118_C71 ([4]; ramos): 1.8
8 | C=CC(=O)N(Cc1cccnc1)c1cc(C(F)(F)F)cc(C(F)(F)F)c1 [compound 31] | – | 0.9 | – | – | – | 1.0 | – | 2.6 | 1.3 | –

— US10670605B2, “Cysteine reactive probes and uses thereof” (The Scripps Research Institute, priority 2015, dated 2020)
